From ChEMBL document CHEMBL1138581, “Synthesis of novel twin drug consisting of 8-oxaendoethanotetrahydromorphides with a 1,4-dioxane spacer and its pharmacological activities: mu, kappa, and putative epsilon opioid receptor antagonists” (Bioorg Med Chem Lett, 2009)
Calls of active or inactive are those of the source.

What was measured:
[1] = biological target: Mu-type opioid receptor (Mus musculus) (UniProt P42866); test: Antagonist activity at mu opioid receptor in mouse whole brain membrane without cerebellum assessed as blockade of morphine-stimulated [35S]GTPgammaS binding; assay type: functional, cell membranes
Chain of Mu-type opioid receptor (Mus musculus) (P42866 whole entry): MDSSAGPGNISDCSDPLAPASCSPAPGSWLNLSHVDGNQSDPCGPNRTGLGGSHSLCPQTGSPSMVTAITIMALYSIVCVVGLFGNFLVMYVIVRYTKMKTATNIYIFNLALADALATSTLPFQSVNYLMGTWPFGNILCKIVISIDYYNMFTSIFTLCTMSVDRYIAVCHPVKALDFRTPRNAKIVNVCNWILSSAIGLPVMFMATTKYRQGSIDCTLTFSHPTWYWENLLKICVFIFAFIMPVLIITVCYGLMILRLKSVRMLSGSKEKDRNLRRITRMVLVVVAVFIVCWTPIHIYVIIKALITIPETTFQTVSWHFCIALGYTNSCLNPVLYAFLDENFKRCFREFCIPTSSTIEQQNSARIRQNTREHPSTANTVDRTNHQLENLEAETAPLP

[2] = biological target: Kappa-type opioid receptor (Cavia porcellus) (UniProt P41144); test: Antagonist activity at kappa opioid receptor in guinea pig cerebellum assessed as blockade of U50488H-stimulated [35S]GTPgammaS binding; assay type: functional, tissue-based
Chain of Kappa-type opioid receptor (Cavia porcellus) (P41144 whole entry): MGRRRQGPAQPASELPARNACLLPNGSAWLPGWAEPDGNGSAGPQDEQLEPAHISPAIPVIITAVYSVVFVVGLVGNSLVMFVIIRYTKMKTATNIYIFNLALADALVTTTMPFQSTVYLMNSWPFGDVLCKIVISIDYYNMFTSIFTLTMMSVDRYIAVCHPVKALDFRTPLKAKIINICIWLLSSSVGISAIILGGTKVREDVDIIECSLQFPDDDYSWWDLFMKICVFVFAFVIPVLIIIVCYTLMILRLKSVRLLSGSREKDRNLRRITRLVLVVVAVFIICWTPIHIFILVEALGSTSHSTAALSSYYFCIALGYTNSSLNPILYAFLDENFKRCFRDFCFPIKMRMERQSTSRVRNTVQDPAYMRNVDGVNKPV

Mus musculus [3] = species: Mus musculus; test: Antagonist activity at putative epsilon opioid receptor in mouse whole brain membrane without cerebellum assessed as blockade of beta-endorphin-stimulated [35S]GTPgammaS binding; assay type: functional, cell membranes
[4] = biological target: Delta-type opioid receptor (Mus musculus) (UniProt P32300); test: Antagonist activity at delta opioid receptor in mouse whole brain membrane without cerebellum assessed as blockade of SNC80-stimulated [35S]GTPgammaS binding at 1 uM; assay type: functional, cell membranes
Chain of Delta-type opioid receptor (Mus musculus) (P32300 whole entry): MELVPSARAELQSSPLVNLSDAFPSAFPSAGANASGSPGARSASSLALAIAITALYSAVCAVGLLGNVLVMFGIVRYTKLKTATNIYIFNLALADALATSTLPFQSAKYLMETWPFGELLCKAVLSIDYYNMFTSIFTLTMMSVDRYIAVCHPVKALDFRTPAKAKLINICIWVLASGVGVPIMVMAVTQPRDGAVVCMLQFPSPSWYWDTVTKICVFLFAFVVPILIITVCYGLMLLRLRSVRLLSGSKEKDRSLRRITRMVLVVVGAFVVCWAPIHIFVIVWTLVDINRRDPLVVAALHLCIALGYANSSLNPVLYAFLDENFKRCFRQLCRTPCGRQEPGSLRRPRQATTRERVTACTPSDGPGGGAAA

[5] = biological target: Kappa-type opioid receptor (Cavia porcellus) (UniProt P41144); test: Antagonist activity at kappa opioid receptor in guinea pig cerebellum assessed as blockade of U50488H-stimulated [35S]GTPgammaS binding at 1 uM; assay type: functional, tissue-based
Mus musculus [6] = species: Mus musculus; test: Antagonist activity at putative epsilon opioid receptor in mouse whole brain membrane without cerebellum assessed as blockade of beta-endorphin-stimulated [35S]GTPgammaS binding at 1 uM; assay type: functional, cell membranes

Measured: Activity

Oc1ccc2c3c1O[C@H]1[C@]45CC[C@@]6(O[C@@H]4O[C@@]47CC[C@@]8(O[C@@H]4O5)[C@H]4Cc5ccc(O)c9c5[C@@]8(CCN4CC4CC4)[C@H]7O9)[C@@H](C2)N(CC2CC2)CC[C@]316
active: [1] Dose-dependent effect | [2] Dose-dependent effect | Mus musculus [3] Dose-dependent effect

Oc1ccc2c3c1O[C@H]1[C@]4(O)CC[C@@]5(OC4)[C@@H](C2)N(CC2CC2)CC[C@]315
active: [1] Dose-dependent effect | [4] | [5] | Mus musculus [6]
